# Reference: patent US20240124483A1, “Methods for the Treatment of Fibrotic Disease” (SHY Therapeutics, LLC, priority 2021, published 2024)
# Experiments:
# AKT phosphorylation = assay: Western AKT Cell-Based Phosphorylation Assay; conditions: Homo sapiens, PANC-1, 6 hours, EGF 1.5 ng/ml, read-out: % inh of AKT phosphorylation in PANC-1
# Experimental: (§1) Human tumor-derived pancreatic cancer cell line Panc-1 was purchased from American Type Culture Collection and grown in complete DMEM-High Glucose supplemented with penicillin (100 U/mL), streptomycin (100 μg/mL), and 10% heat-inactivated FBS at 37° C. in a humidified incubator with 5% CO2.
# (§2) Method: Cells were plated at 350000 cells/well density in a 12-well plate, allowed 3 hours to adhere to the plate, then starved in the appropriate medium in the presence of 0.5% FBS overnight. The small molecules to be tested were added to the cells in the final concentration of 10 μM in the presence of 0.3% DMSO for 6 hours incubation at 37° C. Next, cells were stimulated with 1.5 ng/ml EGF for 15 minutes then cells were lysed with lysis buffer containing 1% Triton X-100, EDTA, and Halt™ Protease & Phosphatase Inhibitor Cocktail (Thermo Scientific). Protein concentration was assessed by BCA protein assay (Thermo Scientific). Phosphorylation level of Akt was determined by western blot.
# (§3) Western blot protocol: Equal amounts of protein (15-50 μg) were separated by SDS-PAGE and transferred to nitrocellulose membranes (Invitrogen by Thermo Fisher Scientific). The membrane was stained with Ponceau S Stain (Boston BioProducts) to verify uniform protein loading. Membranes were blocked with 10% milk and phosphorylation levels of Akt were assessed by incubating overnight at 4° C. with anti-phospho-Akt (Ser473) antibody (Cell Signaling) followed by HRP-conjugated secondary antibody (Jackson Immunoresearch, West Grove, PA). Bands were incubated in Amersham ECL Prime Western Blotting Detection Reagent (GE Healthcare) and visualized using the ChemiDoc MP imaging system (Bio-Rad).
# ERK1/2 phosphorylation = assay: Western ERK1/2 Cell-Based Phosphorylation Assay; conditions: Homo sapiens, PANC-1, 6 hours, EGF 1.5 ng/ml, read-out: % inh of ERK1/2 phosphorylation in PANC-1
# Experimental: as §1, with “Cell lines: Human” for “Human”, “Glucose,” for “Glucose”
# as §2, with “C. For IC50 value determination, serial dilutions of compounds were added to cells under the same conditions.” for “C.”, “ERK1/2” for “Akt”
# as §3, with “ERK1/2” for “Akt”, “anti-phospho-p44/42 (Thr202/Tyr204)” for “anti-phospho-Akt (Ser473)”
# Cdc42 = Cdc42 (Homo sapiens (Human), UniProt P60953); assay: Cdc42 GTP Binding Domain Inhibition Assay; conditions: read-out: Cdc42: % inh.
# Sequence of Cdc42 (P60953 whole entry, species assumed, the tested form may be a part): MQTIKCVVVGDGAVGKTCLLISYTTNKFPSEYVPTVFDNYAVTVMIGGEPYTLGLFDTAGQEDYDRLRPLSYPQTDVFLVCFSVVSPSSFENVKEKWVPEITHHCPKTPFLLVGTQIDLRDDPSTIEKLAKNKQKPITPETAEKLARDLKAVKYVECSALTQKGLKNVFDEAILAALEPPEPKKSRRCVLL
# Experimental: (§4) The following method was developed as specific assay for cdc42 and Rheb proteins.
# (§5) Buffer-I: • 25 mM Tris-HCl, pH 7.4 • 27 mM KCl • 137 mM NaCl • 1 mM MgCl2 • 1 mM DTT
# (§6) Buffer-IL: • 50 mM Tris-HCl, pH 7.0 • 1 mM MgCl2 • 1 mM DTT
# (§7) The small GTPases proteins cdc42 and Rheb were expressed as His-tagged proteins. For the assay, the cdc42 and Rheb purified small GTPases proteins were diluted in Buffer-I or Buffer-II to a final concentration of 10-30 μg/mL. 200 μL of each diluted protein was added to a nickel-coated 96-well plate and incubated overnight at […]. Then the protein solution was discarded and 200 μL of Buffer-I or Buffer-II was added to each well in the presence of 1% DMSO. Compounds to be tested were added to the protein-coated wells at final concentration of 20 μM, and incubated for 3 hours at room temperature with and without 10-30 μg/mL of Sos added to the final hour of the incubation. When performing IC50 measurements a serial dilution of all tested concentrations was added. Then Cy3-GTP or Cy5-GTP was added to each well to a final concentration of 100 nM. The labeled GTP was incubated for 45 minutes at room temperature. Following GTP incubation, wells were washed 3× in Buffer-I or Buffer-II and 200 μL of Buffer-I or Buffer-II was added to each well. Following washes, the amount of bound labeled-GTP was measured using a SpectraMax M3 (Molecular Devices).
# Rheb = Rheb (Homo sapiens (Human), UniProt Q15382); assay: Rheb GTP Binding Domain Inhibition Assay; conditions: read-out: Rheb: % inh.
# Sequence of Rheb (Q15382 whole entry, species assumed, the tested form may be a part): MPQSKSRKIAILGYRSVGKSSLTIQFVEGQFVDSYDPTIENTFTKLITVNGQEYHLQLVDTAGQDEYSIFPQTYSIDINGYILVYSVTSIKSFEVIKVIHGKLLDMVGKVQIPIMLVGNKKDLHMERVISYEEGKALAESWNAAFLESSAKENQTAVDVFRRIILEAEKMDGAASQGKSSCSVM
# Experimental: as §4, §5, §6, §7
inhibition at 20 µM (Cdc42) [%],inhibition at 20 µM (Rheb) [%],SMILES,inhibition at 10 µM (AKT phosphorylation) [%],inhibition at 10 µM (ERK1/2 phosphorylation) [%]
1 to 25,26 to 45,"COc1cc(-c2sc3nc(-c4nccn4C)nc(N[C@@H]4CC[C@H](OC)C4)c3c2-c2ccccc2)ccn1 (racemic) [Compound 44, rac-N-((1R,3S)-3-Methoxycyclopentyl)-6-(2-methoxypyridin-4-yl)-2-(1-methyl-1H-imidazol-2-yl)-5-phenylthieno[2,3-d]pyrimidin-4-amine]",76 to 100,46 to 75
46 to 75,76 to 100,"COc1cc(-c2sc3nc(-c4nccn4C)nc(N[C@@H]4CC[C@@H](OC)C4)c3c2-c2ccccc2)ccn1 (racemic) [Compound 47, N-((1R,3R)-3-Methoxycyclopentyl)-6-(2-methoxypyridin-4-yl)-2-(1-methyl-1H-imidazol-2-yl)-5-phenylthieno[2,3-d]pyrimidin-4-amine]",76 to 100,76 to 100
,,"COCCOc1nc(-c2nccn2C)nc2sc(-c3ccn(C(C)C)n3)c(C)c12 [Compound 30, 6-(1-Isopropyl-1H-pyrazol-3-yl)-4-(2-methoxyethoxy)-5-methyl-2-(1-methyl-1H-imidazol-2-yl)thieno[2,3-d]pyrimidine]",0,0
,,"COCCCn1c(-c2nccn2C)nc2sc(-c3ccn(C(C)C)n3)c(C)c2c1=O [Compound 31, 6-(1-Isopropyl-1H-pyrazol-3-yl)-3-(3-methoxypropyl)-5-methyl-2-(1-methyl-1H-imidazol-2-yl)thieno[2,3-d]pyrimidin-4(3H)-one]",0,0
,,"COCCCOc1nc(-c2nccn2C)nc2sc(-c3ccn(C(C)C)n3)c(C)c12 [Compound 32, 6-(1-Isopropyl-1H-pyrazol-3-yl)-4-(3-methoxypropoxy)-5-methyl-2-(1-methyl-1H-imidazol-2-yl)thieno[2,3-d]pyrimidine]",1 to 25,0
,,"COCCCCn1c(-c2nccn2C)nc2sc(-c3ccn(C(C)C)n3)c(C)c2c1=O [Compound 33, 6-(1-Isopropyl-1H-pyrazol-3-yl)-3-(4-methoxybutyl)-5-methyl-2-(1-methyl-1H-imidazol-2-yl)thieno[2,3-d]pyrimidin-4(3H)-one]",0,0
,,"COCCCCOc1nc(-c2nccn2C)nc2sc(-c3ccn(C(C)C)n3)c(C)c12 [Compound 34, 6-(1-Isopropyl-1H-pyrazol-3-yl)-4-(4-methoxybutoxy)-5-methyl-2-(1-methyl-1H-imidazol-2-yl)thieno[2,3-d]pyrimidine]",0,0
,,"COc1cc(Cn2c(-c3nccn3C)nc3sc(-c4ccn(C(C)C)n4)c(C)c3c2=O)ncn1 [Compound 35, 6-(1-Isopropyl-1H-pyrazol-3-yl)-3-((6-methoxypyrimidin-4-yl)methyl)-5-methyl-2-(1-methyl-1H-imidazol-2-yl)thieno[2,3-d]pyrimidin-4(3H)-one]",0,0
,,"COCCCn1c(-c2nccn2C)nc2sc(-c3ccn(C(C)C)n3)c(-c3ccccc3)c2c1=O [Compound 36, 6-(1-Isopropyl-1H-pyrazol-3-yl)-3-(3-methoxypropyl)-2-(1-methyl-1H-imidazol-2-yl)-5-phenylthieno[2,3-d]pyrimidin-4(3H)-one]",0,0
,,"COCCCOc1nc(-c2nccn2C)nc2sc(-c3ccn(C(C)C)n3)c(-c3ccccc3)c12 [Compound 37, 6-(1-Isopropyl-1H-pyrazol-3-yl)-4-(3-methoxypropoxy)-2-(1-methyl-1H-imidazol-2-yl)-5-phenylthieno[2,3-d]pyrimidine]",0,0
26 to 45,76 to 100,"COc1cccc(-c2sc3nc(-c4nccn4C)nc(N[C@H]4C[C@H](OC)C4)c3c2-c2ccccc2)c1F [Compound 40, 6-(2-Fluoro-3-methoxyphenyl)-N-((1r,3r)-3-methoxycyclobutyl)-2-(1-methyl-1H-imidazol-2-yl)-5-phenylthieno[2,3-d]pyrimidin-4-amine]",76 to 100,76 to 100
,,"COc1cccc(-c2sc3nc(-c4nccn4C)nc(N[C@H]4C[C@H](OC)C4)c3c2C)c1F [Compound 42, 6-(2-Fluoro-3-methoxyphenyl)-N-((1r,3r)-3-methoxycyclobutyl)-5-methyl-2-(1-methyl-1H-imidazol-2-yl)thieno[2,3-d]pyrimidin-4-amine]",26 to 45,46 to 75
46 to 75,76 to 100,"COc1nccc(-c2sc3nc(-c4nccn4C)nc(N[C@H]4C[C@H](OC)C4)c3c2-c2ccccc2)c1F [Compound 45, 6-(3-Fluoro-2-methoxypyridin-4-yl)-N-((1r,3r)-3-methoxycyclobutyl)-2-(1-methyl-1H-imidazol-2-yl)-5-phenylthieno[2,3-d]pyrimidin-4-amine]",76 to 100,76 to 100
46 to 75,76 to 100,"COc1cc(-c2sc3nc(-c4nccn4C)nc(N[C@H]4C[C@H](OC)C4)c3c2-c2ccccc2)ccn1 [Compound 46, N-((1r,3r)-3-Methoxycyclobutyl)-6-(2-methoxypyridin-4-yl)-2-(1-methyl-1H-imidazol-2-yl)-5-phenylthieno[2,3-d]pyrimidin-4-amine]",1 to 25,76 to 100
